Columns and labels:
Assay type in all cases: physicochemical
[1] = Stability test (influence factors: high-humidity, light irradiation, accelerated test); sample purity measured; settings: for purity of the sample, accelerated test: accelerated test 40° C.±2° C., relative humidity 75%±5%; for purity of the sample, initial value: day 0, initial value; for purity of the sample, high-humidity test: high-humidity 25° C., 92.5% RH; for purity of the sample, light irradiation test: light irradiation 10000 lx±500 lx
From the text: The tests last for 10 days. Samples were taken on days 0, 5 and 10 to measure the purities of the samples so as to determine their stabilities.

[2] = Moisture content after storage under high humidity and accelerated test conditions; settings: high humidity (25° C., 92.5% RH) and accelerated test conditions (40±2° C., 75%±5% RH) for 10 days
[3] = Intrinsic dissolution rate, rotating disk method (USP Chapter 1087); settings: 700 ml 0.1 mol/L hydrochloric acid, 300 rpm, 37° C., detection 287 nm
Experimental: Intrinsic dissolution rates of the crystalline Form A of nintedanib diethanesulfonate prepared in Example 1 and the crystalline form of nintedanib diethanesulfonate prepared according to WO2012068441 (the existing crystal) were determined by using the intrinsic dissolution rotating disk method in Chapter 1087 of the U.S. Pharmacopeia, and the results are shown in Table 2. Dissolution Medium: 700 ml of 0.1 mol/L hydrochloric acid solution, Rotating Speed: 300 rpm, Detection Wavelength: 287 nm, Medium Temperature: 37° C.

SMILES | purity of the sample, accelerated test ([1]; day 10) [%] | purity of the sample, initial value [1] [%] | purity of the sample, high-humidity test ([1]; day 5) [%] | purity of the sample, high-humidity test ([1]; day 10) [%] | purity of the sample, light irradiation test ([1]; day 5) [%] | purity of the sample, light irradiation test ([1]; day 10) [%] | moisture content ([2]; listed as crystalline Form A of nintedanib diethanesulfonate) | Average dissolution rate [3] [µg/mL/min] | Maximum dissolution rate [3] [µg/mL/min] | character (appearance) after storage [2] | moisture content ([2]; listed as crystalline form of nintedanib diethanesulfonate prepared according to WO2012068)
CCS(=O)(=O)O.COC(=O)c1ccc2c(c1)NC(=O)/C2=C(\Nc1ccc(N(C)C(=O)CN2CCN(C)CC2)cc1)c1ccccc1 [The crystalline Form A, nintedanib diethanesulfonate] | 99.77 | 99.80 | 99.78 | 99.79 | 99.79 | 99.70 | essentially unchanged | 22.508 | 23.344 | – | –
CCS(=O)(=O)O.COC(=O)c1ccc2c(c1)NC(=O)/C2=C(\Nc1ccc(N(C)C(=O)CN2CCN(C)CC2)cc1)c1ccccc1 [The existing crystal, nintedanib diethanesulfonate] | 95.10 | 99.78 | 99.72 | 99.67 | 99.73 | 99.19 | – | 13.373 | 14.689 | absorbs moisture to become clumping | increases significantly
